Data set [1] deals with U87MG glioblastoma cells. Nature of the data set: RRA cytotoxicity, U87MG. To be noted: Homo sapiens, U-87 MG, 72 h.
Method: (§2) The sources of the HepG2 hepatocarcinoma [27], U87MG glioblastoma cells and its resistant epidermal growth factor receptor (EGFR) transfected subline, U87MG.ΔEGFR [28], HCT116 p53^+/+ colon adenocarcinoma cells and its resistant knock-out congener, HCT116 p53^−/− [29], MDA-MB-231-pcDNA3 breast adenocarcinoma cells and its multidrug-resistant breast cancer resistance protein (BCRP)-transfected MDA-MB-231-BCRP clone 23 subline [30] have also been described. To compare the activity of samples in HepG2 cells, the AML12 hepatocytes were used [31]. […] These culture media were used as complete media with additional 10% fetal bovine serum and 1% penicillin/streptomycin (Invitrogen, Eggenstein, Germany).
(§3) Botanicals were tested in the concentration range of 0.63–80 µg/mL, the isolated compounds at 0.78—100 µM; the treated cells were incubated for 72 h; the fluorescence was measured at the excitation wavelength of 544 nm and at the emission wavelengths of 590 nm using Infinite M2000 Pro™ plate reader (Tecan, Crailsheim, Germany).
Data set [2] relates to HepG2 hepatocarcinoma cells. Nature of the data set: RRA cytotoxicity, HepG2. To be noted: Homo sapiens, HepG2, 72 h.
Method: as §2, §3
Data set [3] relates to CEM/ADR5000 leukemia cells (P-gp-overexpressing). Nature of the data set: RRA cytotoxicity, CEM/ADR5000. To be noted: for IC50: Homo sapiens, ADR5000, 72 h; for Degree of resistance: IC50 CEM/ADR5000 versus CCRF-CEM.
From the text: These culture media were used as complete media with additional 10% fetal bovine serum and 1% penicillin/streptomycin (Invitrogen, Eggenstein, Germany).
Data set [4] has as its system U87MG.ΔEGFR cells. Nature of the data set: RRA cytotoxicity, U87MG.ΔEGFR. To be noted: for IC50: Homo sapiens, 72 h; for Degree of resistance: IC50 U87MG.ΔEGFR versus U87MG.
Method: (§4) The sources of the HepG2 hepatocarcinoma [27], U87MG glioblastoma cells and its resistant epidermal growth factor receptor (EGFR) transfected subline, U87MG.ΔEGFR [28], HCT116 p53^+/+ colon adenocarcinoma cells and its resistant knock-out congener, HCT116 p53^−/− [29], MDA-MB-231-pcDNA3 breast adenocarcinoma cells and its multidrug-resistant breast cancer resistance protein (BCRP)-transfected MDA-MB-231-BCRP clone 23 subline [30] have also been described. […] These culture media were used as complete media with additional 10% fetal bovine serum and 1% penicillin/streptomycin (Invitrogen, Eggenstein, Germany).
as §3
For data set [5], the system named is HCT116 p53^+/+ colon adenocarcinoma cells. Nature of the data set: RRA cytotoxicity, HCT116 p53^+/+. To be noted: Homo sapiens, HCT-116, 72 h.
Method: as §2, §3
The test system of data set [6] is HCT116 p53^−/− cells. Nature of the data set: RRA cytotoxicity, HCT116 p53^−/−. To be noted: for IC50: Homo sapiens, HCT-116, 72 h; for Degree of resistance: IC50 HCT116 p53^−/− versus HCT116 p53^+/+.
Method: as §4, §3
Data set [7] relates to MDA-MB-231-BCRP cells. Nature of the data set: RRA cytotoxicity, MDA-MB-231-BCRP. To be noted: for IC50: Homo sapiens, MDA-MB-231/BCRP, 72 h; for Degree of resistance: IC50 MDA-MB-231-BCRP versus MDA-MB-231-pcDNA.
Method: as §4, §3
Data set [8] concerns MDA-MB-231-pcDNA breast adenocarcinoma cells. Nature of the data set: RRA cytotoxicity, MDA-MB-231-pcDNA. To be noted: Homo sapiens, 72 h.
Method: as §2, §3
Data set [9] relates to normal AML12 hepatocytes. Nature of the data set: RRA cytotoxicity, normal AML12 hepatocytes. To be noted: for Selectivity index: IC50 in AML12 versus IC50 in HepG2; for IC50: Mus musculus, AML12, 72 h.
In data set [10] the test system is 9 tested cancer cell lines. Nature of the data set: RRA cytotoxicity, whole panel of cancer cell lines. To be noted: Homo sapiens, 72 h, read-out: IC50 against all the investigated cancer cell lines.
Data set [11] deals with CCRF-CEM leukemia cells. Nature of the data set: Resazurin reduction assay (RRA) cytotoxicity, CCRF-CEM. To be noted: Homo sapiens, 72 h. A general note: Resazurin is reduced to fluorescent resorufin, in cell work by metabolically active cells.
Data set [12] deals with reactive oxygen species (ROS) production in CCRF-CEM cells. Nature of the data set: ROS production, H2DCFH-DA staining and flow cytometry. It is filed as cell-based, human. To be noted: 24 h, 50 µM, untreated cells 0.6%. The procedure: (§1) The treated cells (1 mL; 1 × 10^6 cells) were incubated for 24 h under the standard cell culture condition. Cells were further stained for 30 min with 10 µL of staining solution ([…] or H2DCFH-DA solution for ROS evaluation) according to the manufacturer’s protocol. Using the LSRFortessa FACS analyzer (Becton–Dickinson, Heidelberg, Germany), the amount of 1 × 10^4 cells was further measured as described earlier.
For orientation: In flow cytometry, cells or beads pass a laser one at a time.

The test system of data set [13] is mitochondrial membrane potential (MMP) of CCRF-CEM cells. Nature of the data set: MMP analysis, JC-1 staining and flow cytometry. It is filed as cell-based, human. To be noted: 24 h. As to the method:
as §1

By melting point is commonly meant the temperature, or range, at which the solid turns liquid. A word on the IC50: it is the concentration that gives 50% inhibition. For `COc1ccc(-c2oc3cc(O)c(C)c(O)c3c(=O)c2OC)cc1O` [Compound 1, 6-C-methylquercetin-3, 4'-dimethyl ether], the melting point fell in the range of 195 to 197 °C. The compound also came in with a half-inhibitory concentration (IC50) in data set [1] of 27.2 ± 3.07 µM. Also, half-maximal inhibition in data set [2] (IC50) was put at 23.5 ± 0.59 µM. In data set [3], this compound showed an IC50 of 10.3 ± 0.44 µM and a Degree of resistance of 0.72. In data set [4], the IC50 came to 26.6 ± 1.13 µM and the Degree of resistance is 0.98. In [5], the concentration for half-maximal inhibition (IC50) was 21.2 ± 2.45 µM. Besides, in [6], half-maximal inhibition (IC50) was put at 10.8 ± 1.11 µM and the Degree of resistance amounted to 0.51. In data set [7], this compound came in with a half-maximal inhibitory concentration (IC50) of 17 ± 2.05 µM and a Degree of resistance of 1.51. Half-maximal inhibition in [8] (IC50) required 11.3 ± 1.04 µM. In [9], this compound had a Selectivity index of over 2.13 and an IC50 of over 50 µM. Moreover, the 50% inhibitory concentration (IC50) in [10] was under 50 µM. The same compound displayed an IC50 in data set [11] of 14.2 ± 0.94 µM.
The compound `COc1cc2oc(-c3ccc(O)c(O)c3)c(OC)c(=O)c2c(O)c1C` [Compound 2, 6-C-methylquercetin-3,7-dimethyl ether] came in with a melting point of 195 to 197 °C. The compound also yielded an IC50 in [1] of 24.8 ± 2.22 µM. In data set [2], this compound returned an IC50 of 19.6 ± 1.44 µM. In data set [3], the half-inhibitory concentration (IC50) was 9.11 ± 0.18 µM and the Degree of resistance was determined as 0.76. In data set [4], this compound yielded an IC50 of 21.1 ± 2.4 µM and a Degree of resistance of 0.85. Also, in [5], half-maximal inhibition (IC50) required 12.3 ± 1.24 µM. In data set [6], this compound showed an IC50 of 9.2 ± 0.45 µM and a Degree of resistance of 0.75. In data set [7], this compound yielded an IC50 of 14.3 ± 1.12 µM and a Degree of resistance of 1.45. This compound returned an IC50 in data set [8] of 9.84 ± 0.66 µM. Further, the half-maximal inhibitory concentration (IC50) in data set [9] is over 50 µM. Also, the half-inhibitory concentration (IC50) in [11] amounted to 12 ± 1.25 µM.
`COc1cc(-c2oc3cc(OC)c(C)c(O)c3c(=O)c2OC)ccc1O` [Compound 3, 6-C-methylquercetin 3,7,3'-trimethyl ether] had a melting point of 185 to 187 °C. The compound also had a half-maximal inhibitory concentration (IC50) in data set [1] of 31 ± 2.65 µM. Also, 23.6 ± 3.23 µM corresponded to half-maximal inhibition in data set [2] (IC50). In addition, in [3], the 50% inhibitory concentration (IC50) was determined as 10.2 ± 0.3 µM and the Degree of resistance is 0.57. For the same compound, in data set [4], the half-inhibitory concentration (IC50) stood at 19.8 ± 0.96 µM and the Degree of resistance was determined as 0.64. In data set [5], this compound yielded an IC50 of 19.8 ± 0.78 µM. In data set [6], this compound registered a 50% inhibitory concentration (IC50) of 17.2 ± 0.83 µM and a Degree of resistance of 0.87. In data set [7], this compound came in with an IC50 of 13.2 ± 1.48 µM and a Degree of resistance of 1.20. The compound also had an IC50 in [8] of 11 ± 0.58 µM. In addition, in [9], the IC50 is over 50 µM. Further, in data set [10], the concentration for half-maximal inhibition (IC50) was under 50 µM. Besides, the half-maximal inhibitory concentration (IC50) in data set [11] came to 17.9 ± 1.67 µM.
Regarding `C[C@@H]1OC(Oc2c(-c3ccc(O)c(O)c3)oc3cc(O)cc(O)c3c2=O)[C@H](O)[C@H](O)[C@H]1O` (stereo partly drawn) [Compound 5, quercetin-3-O-L-rhamnopyranoside], the half-inhibitory concentration (IC50) in [1] worked out at 23.7 ± 1.77 µM; in [2], 28.3 ± 1.74 µM; in data set [3], 7.21 ± 0.61 µM; in data set [4] it was 31.1 ± 1.85 µM; in [5], 17.9 ± 1.26 µM; in [6], 13.2 ± 1.14 µM. Also, the half-maximal inhibitory concentration (IC50) in data set [7] was 16.8 ± 1.26 µM; in data set [8], 7.24 ± 0.47 µM; in data set [9] it was over 50 µM; in data set [11], 8.73 ± 0.62 µM. Further, the Degree of resistance in data set [3] is recorded as 0.83; in data set [4], 1.31; in data set [6], 0.73; in data set [7] it was 2.32. Further, the Selectivity index in [9] was over 1.77.
For the compound `O=c1c(O[C@@H]2O[C@H](CO)[C@@H](O)[C@H](O)[C@H]2O)c(-c2ccc(O)c(O)c2)oc2cc(O)cc(O)c12` [Compound 6, quercetin-3-O-β-glucopyranoside], the IC50 was 19 ± 2.01 µM in data set [1]; 21.5 ± 2.25 µM in [2]; 7.88 ± 0.58 µM in [3]; 33.5 ± 2.79 µM in data set [4]; 21.8 ± 2.11 µM in [5]; 12.5 ± 1.36 µM in data set [6]. For the same compound, the IC50 in data set [7] is 12.3 ± 0.97 µM; in data set [8] it was 6.99 ± 0.28 µM; in [9], over 50 µM; in data set [11] it was 9.12 ± 0.59 µM. The Degree of resistance in data set [3] was found to be 0.90; in [4], 1.75; in data set [6] it was 0.57; in data set [7], 1.76. In addition, the Selectivity index entry in data set [9] was “above 2”.
On to `COc1c(C)c(O)c2c(=O)c(OC)c(-c3ccc(O)cc3)oc2c1C` [Compound 7, 6,8-C-dimethylkaempferol 3,7-dimethyl ether], for which the melting point is 285 to 287 °C. For the same compound, in data set [1], the half-maximal inhibitory concentration (IC50) worked out at 19.3 ± 1.62 µM. The same compound showed an IC50 in data set [2] of 30.7 ± 1.86 µM. In data set [3], this compound came in with an IC50 of 2.86 ± 0.17 µM and a Degree of resistance of 0.43. Moreover, in data set [4], the IC50 was 18 ± 2.21 µM and the Degree of resistance is reported as 0.93. In [5], this compound had a 50% inhibitory concentration (IC50) of 19.5 ± 2.05 µM. Also, in data set [6], the IC50 worked out at 9.71 ± 0.76 µM and the Degree of resistance is on record as 0.50. In data set [7], this compound yielded an IC50 of 8.15 ± 0.73 µM and a Degree of resistance of 4.22. This compound yielded an IC50 in data set [8] of 1.93 ± 0.19 µM. In [9], this compound had a Selectivity index of over 1.63 and a half-inhibitory concentration (IC50) of over 50 µM. The same compound came in with a half-inhibitory concentration (IC50) in data set [11] of 6.61 ± 0.41 µM.
Regarding `COc1cccc2c1C(=O)c1c(O)c3c(c(O)c1C2=O)C[C@@](O)(C(=O)CO)C[C@@H]3O[C@H]1C[C@H](N)[C@H](O)[C@H](C)O1` [Doxorubicin, doxorubicin, reference compound], the IC50 in [1] was 0.26 ± 0.03 µM; in data set [2], 4.56 ± 0.48 µM; in data set [3], 123 ± 10.9 µM; in data set [4], 0.98 ± 0.07 µM; in data set [6] it was 1.78 ± 0.08 µM; in data set [7], 0.79 ± 0.08 µM. Also, the figures for the concentration for half-maximal inhibition (IC50) in [8], in [9] and in data set [11] were 0.13 ± 0.01 µM, over 50 µM and 0.02 µM, respectively. The Degree of resistance in data set [3] is listed as 6,683.00; in data set [4], 3.79; in data set [6], 3.73; in [7], 6.14.
The compound `OO` [H2O2, hydrogen peroxide, reference compound] returned an ROS level in data set [12] of 94.30%.
Turning to `CC(C)[C@@H]1NC(=O)[C@H](C)OC(=O)[C@@H](C(C)C)NC(=O)[C@@H](C(C)C)OC(=O)[C@H](C(C)C)NC(=O)[C@H](C)OC(=O)[C@@H](C(C)C)NC(=O)[C@@H](C(C)C)OC(=O)[C@H](C(C)C)NC(=O)[C@H](C)OC(=O)[C@@H](C(C)C)NC(=O)[C@@H](C(C)C)OC1=O` [Valinomycin, valinomycin, reference compound], the “Effect on the integrity of the MMP” value in data set [13] is given as “strongly altered the integrity of the MMP”. Moreover, in data set [13] (positive control, picture: at 25 (no unit), text: 2 × IC50), the “Q1, cells with undamaged (intact) MMP” value came out at 38.6%.

(Values after paper PMC10523748, “Cytotoxicity, acute and sub-chronic toxicities of the leaves of Bauhinia thonningii (Schumach.) Milne-Redh. (Caesalpiniaceae)” (BMC Complementary Medicine and Therapies, 2023).)
